Source: the NIST ThermoML archive (doi:10.1016/j.jct.2017.01.011)
± gives the expanded uncertainty stated by the source.

How the values were obtained:
[1] = xn = mol fraction of the nth substance listed; details: 100 kPa, Liquid, x1 = 1; for speed of sound: Frequency=3 MHz, Single path-length method; for mass density: Vibrating tube method
[2] = 100 kPa, Liquid; for speed of sound: Frequency=3 MHz, Single path-length method; for mass density: Vibrating tube method

speed of sound ([1]; 283.15 K)	mass density ([1]; 283.15 K)	speed of sound ([1]; 293.15 K)	mass density ([1]; 293.15 K)	speed of sound ([1]; 303.15 K)	mass density ([1]; 303.15 K)	speed of sound ([1]; 313.15 K)	mass density ([1]; 313.15 K)	speed of sound ([2]; 283.15 K)	mass density ([2]; 283.15 K)	speed of sound ([2]; 293.15 K)	mass density ([2]; 293.15 K)	speed of sound ([2]; 303.15 K)	mass density ([2]; 303.15 K)	speed of sound ([2]; 313.15 K)	mass density ([2]; 313.15 K)	SMILES
1196.8 ± 4.1 m/s	798 ± 1 kg/m3	1162.3 ± 4.1 m/s	790 ± 1 kg/m3	1128.2 ± 4.1 m/s	781 ± 1 kg/m3	1094.5 ± 4.1 m/s	772 ± 1 kg/m3									CCO [ethanol] + OCC(O)CO
								1942.3 ± 6.1 m/s	1267 ± 1 kg/m3	1922.9 ± 6.1 m/s	1261 ± 1 kg/m3	1901 ± 6.1 m/s	1255 ± 1 kg/m3	1879.3 ± 6.1 m/s	1248 ± 1 kg/m3	OCC(O)CO [glycerol]
1153.3 ± 4.1 m/s	801 ± 1 kg/m3	1119.6 ± 4.1 m/s	791 ± 1 kg/m3	1086.6 ± 4.1 m/s	782 ± 1 kg/m3	1054.2 ± 4.1 m/s	772 ± 1 kg/m3									CO [methanol] + OCC(O)CO
